{
  "source": "patent US20100173835A1",
  "about": "“Peptides for Treatment of Obesity” (Novo Nordisk A/S, priority 2008, published 2010)",
  "key": {"ad libitum fed rat model": {"test_system": "ad libitum fed rat model", "test": "Assay (I) efficacy testing on appetite, ad libitum fed rat model", "type": "in vivo", "settings": "dosing 1 mg/kg", "protocol": "Assay (I)—Experimental protocol for efficacy testing on appetite with MC4 analogues, using an ad libitum fed rat model. TAC:SPRD @mol rats or Wistar rats from M&B Breeding and Research Centre A/S, Denmark are used for the experiments. The rats have a body weight 200-250 g at the start of experiment. The rats arrive at least 10-14 days before start of experiment with a body weight of 180-200 g. Each dose of compound is tested in a group of 8 rats. […] When the animals arrive they are housed individually in a reversed light/dark phase (lights off 7:30 am, lights on 7:30 pm), meaning that lights are off during daytime and on during nighttime. […] During this period the animals are handled at least 3 times. The experiment is conducted in the rats' home cages. Immediately before dosing the rats are randomised to the various treatment groups (n 8) by body weight. They are dosed according to body weight at between 7:00 am and 7:45 am, with a 1-3 mg/kg solution administered intraperitoneally (ip), orally (po) or subcutaneously (sc). The time of dosing is recorded for each group. After dosing, the rats are returned to their home cages, where they then have access to food and water. […] At the end of the experimental session, the animals are euthanised. The individual data are recorded in Microsoft excel sheets. Outliers are excluded after applying the Grubbs statistical evaluation test for outliers, and the result is presented graphically using the GraphPad Prism program."}, "[1]": {"test": "Solubility data of compounds in water over the pH range", "type": "physicochemical", "settings": "read-out: Conc (solubility in water)"}, "human MC4 receptor": {"target": "T1, human MC4 receptor (Homo sapiens, UniProt P32245)", "T1 construct": "expressed in transfected cells", "T1 sequence (P32245 whole entry)": "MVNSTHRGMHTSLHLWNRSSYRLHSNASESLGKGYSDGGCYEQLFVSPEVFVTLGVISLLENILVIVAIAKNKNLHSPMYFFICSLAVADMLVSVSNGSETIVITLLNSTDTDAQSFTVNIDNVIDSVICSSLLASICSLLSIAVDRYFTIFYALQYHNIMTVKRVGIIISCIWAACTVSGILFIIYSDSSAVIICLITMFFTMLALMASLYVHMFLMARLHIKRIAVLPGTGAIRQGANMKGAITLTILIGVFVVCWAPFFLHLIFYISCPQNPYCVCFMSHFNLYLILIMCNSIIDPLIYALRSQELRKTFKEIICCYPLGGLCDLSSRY", "test": "Assay (V) Melanocortin Receptor 4 (MC4) binding assay", "settings": "125NDP-α-MSH binding, BHK cell membranes", "how_it_was_run": "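BHK membranes stably expressing human MC4 receptor were incubated with ^125NDP-α-MSH (≈79 pM final) and compound for 2 h at 25 °C, pH 7.0 HEPES buffer with HSA or ovalbumin. Filter-bound radioactivity was gamma counted. Binding curves were fitted by non-linear regression.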"}, "MC1 receptor": {"target": "T2, MC1 receptor (Homo sapiens, UniProt Q01726)", "T2 construct": "expressed in transfected cells", "T2 sequence (Q01726 whole entry)": "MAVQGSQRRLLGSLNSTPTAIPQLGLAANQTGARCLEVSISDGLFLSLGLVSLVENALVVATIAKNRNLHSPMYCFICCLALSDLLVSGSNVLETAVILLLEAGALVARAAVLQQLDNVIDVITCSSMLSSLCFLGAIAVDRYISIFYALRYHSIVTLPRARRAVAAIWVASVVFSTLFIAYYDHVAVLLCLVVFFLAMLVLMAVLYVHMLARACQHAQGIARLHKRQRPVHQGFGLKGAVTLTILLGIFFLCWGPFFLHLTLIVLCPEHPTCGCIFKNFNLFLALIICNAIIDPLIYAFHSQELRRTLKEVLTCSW", "test": "Assay (IV) Melanocortin Receptor 1 (MC1) binding assay", "how_it_was_run": "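Competition binding used BHK cell membranes stably expressing MC1 (25 μg/ml) with 22 pM final ^125NDP-α-MSH in 25 mM HEPES pH 7.4, CaCl2, MgSO4, EDTA, 0.1% HSA (or ovalbumin), 0.005% Tween 20. After 90 min at 30° C., bound radioligand was filtered and counted, with binding curves fitted by non-linear regression.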"}},
  "note": "Like-named read-outs stand apart in the source and are kept apart here. Where a SMILES comes first, the peptide text is derived from it. Bridges are numbered along the chain shown (N, C = ends). Side-chain parts run from the residue outwards. [ ]: non-standard residue; d: D form. The star is where a group is joined. Palmitoyl(16-(5-tetrazolyl)) = O=C(CCCCCCCCCCCCCCCc1nnn[nH]1)*; Lys(CH2CO2H)2 = N[C@@H](CCCCN(CC(=O)O)CC(=O)O)C(=O)O; Hyp = O=C(O)[C@@H]1C[C@@H](O)CN1; NTA = O=C(O)CN(CC(=O)O)CC(=O)*; Nle = CCCC[C@H](N)C(=O)O; Dap = NC[C@H](N)C(=O)O; AEEA = NCCOCCOCC(=O)O; βAla = NCCC(=O)O",
  "data": [
    {"smiles": "CCCC[C@H](NC(=O)[C@H](CNC(=O)[C@H](Cc1c[nH]cn1)NC(=O)[C@H](CCC(N)=O)NC(=O)[C@H](CO)NC(=O)CNC(=O)COCCOCCNC(=O)CCCCCCCCCCCCCCCc1nnn[nH]1)NC(=O)CN(CC(=O)O)CC(=O)O)C(=O)N[C@H]1CCC(=O)NCCCC[C@@H](C(N)=O)NC(=O)[C@H](Cc2c[nH]c3ccccc23)NC(=O)[C@H](CCCNC(=N)N)NC(=O)[C@@H](Cc2ccccc2)NC(=O)[C@@H]2C[C@@H](O)CN2C1=O", "note": "[Example 2, (2-{2-[16-(Tetrazol-5-yl)hexadecanoylamino]ethoxy}ethoxy)acetyl-Gly-Ser-Gln-His-β-Dap(BCMA)-Nle-c[Glu-Hyp-D-Phe-Arg-Trp-Lys]-NH2] ({NTA}-[Dap]([His-Gln-Ser-Gly-AEEA-Palmitoyl(16-(5-tetrazolyl))])[Nle]E[Hyp][dF]RWK-NH2; lactam 3-8)", "values": [
      {"measurement": "Food consumption (% of vehicle) 24 h", "setting": "ad libitum fed rat model", "result": "60 % of vehicle"},
      {"measurement": "Food consumption (% of vehicle) 48 h", "setting": "ad libitum fed rat model", "result": "71 % of vehicle"},
      {"measurement": "solubility at 3 days", "setting": "[1]; pH 3.02, pH 3.02", "result": 320, "unit": "µM"},
      {"measurement": "solubility at 3 days", "setting": "[1]; pH 3.84, pH 3.84", "result": 421, "unit": "µM"},
      {"measurement": "solubility at 3 days", "setting": "[1]; pH 4.3, pH 4.3", "result": 216, "unit": "µM"},
      {"measurement": "solubility at 3 days", "setting": "[1]; pH 4.64, pH 4.64", "result": 49, "unit": "µM"},
      {"measurement": "solubility at 3 days", "setting": "[1]; pH 5.22, pH 5.22", "result": 13, "unit": "µM"},
      {"measurement": "solubility at 3 days", "setting": "[1]; pH 6.55, pH 6.55", "result": 14, "unit": "µM"},
      {"measurement": "solubility at 3 days", "setting": "[1]; pH 7.2, pH 7.2", "result": 122, "unit": "µM"},
      {"measurement": "solubility at 3 days", "setting": "[1]; pH 7.36, pH 7.36", "result": 251, "unit": "µM"},
      {"measurement": "solubility at 3 days", "setting": "[1]; pH 7.53, pH 7.53", "result": 320, "unit": "µM"},
      {"measurement": "solubility at 3 days", "setting": "[1]; pH 7.81, pH 7.81", "result": 77, "unit": "µM"},
      {"measurement": "Ki", "setting": "human MC4 receptor; read-out: Assay (V) MC4 [Ki]", "result": 3.43, "unit": "nM"},
      {"measurement": "Ki", "setting": "MC1 receptor; 125NDP-α-MSH binding, BHK cell membranes, read-out: Assay (IV) MC1 Ki", "result": 5570, "unit": "nM"}
    ]},
    {"smiles": "CCCC[C@H](NC(=O)[C@H](CCCCN(CC(=O)O)CC(=O)O)NC(=O)[C@H](CO)NC(=O)[C@H](CCC(N)=O)NC(=O)[C@H](CO)NC(=O)CNC(=O)COCCOCCNC(=O)CCCCCCCCCCCCCCCc1nnn[nH]1)C(=O)N[C@H]1CCC(=O)NCCCC[C@@H](C(N)=O)NC(=O)[C@H](Cc2c[nH]c3ccccc23)NC(=O)[C@H](CCCNC(=N)N)NC(=O)[C@@H](Cc2ccccc2)NC(=O)[C@@H]2C[C@@H](O)CN2C1=O", "note": "[Example 5, (2-{2-[16-(Tetrazol-5-yl)hexadecanoylamino]ethoxy}ethoxy)acetyl-Gly-Ser-Gln-Ser-Lys(biscarboxymethyl)-Nle-c[Glu-Hyp-D-Phe-Arg-Trp-Lys]-NH2] ({Palmitoyl(16-(5-tetrazolyl))-AEEA}-GSQS[Lys(CH2CO2H)2][Nle]E[Hyp][dF]RWK-NH2; lactam 7-12)", "values": [
      {"measurement": "Food consumption (% of vehicle) 24 h", "setting": "ad libitum fed rat model", "result": "81 % of vehicle"},
      {"measurement": "Food consumption (% of vehicle) 48 h", "setting": "ad libitum fed rat model", "result": "91 % of vehicle"},
      {"measurement": "solubility at 3 days", "setting": "[1]; pH 4.22, pH 4.22", "result": 20, "unit": "µM"},
      {"measurement": "solubility at 3 days", "setting": "[1]; pH 4.55, pH 4.55", "result": 21, "unit": "µM"},
      {"measurement": "solubility at 3 days", "setting": "[1]; pH 5.1, pH 5.10", "result": 25, "unit": "µM"},
      {"measurement": "solubility at 3 days", "setting": "[1]; pH 5.23, pH 5.23", "result": 30, "unit": "µM"},
      {"measurement": "solubility at 3 days", "setting": "[1]; pH 5.97, pH 5.97", "result": 129, "unit": "µM"},
      {"measurement": "solubility at 3 days", "setting": "[1]; pH 6.29, pH 6.29", "result": 239, "unit": "µM"},
      {"measurement": "solubility at 3 days", "setting": "[1]; pH 6.68, pH 6.68", "result": 244, "unit": "µM"},
      {"measurement": "solubility at 3 days", "setting": "[1]; pH 7.03, pH 7.03", "result": 245, "unit": "µM"},
      {"measurement": "solubility at 3 days", "setting": "[1]; pH 7.04, pH 7.04", "result": 251, "unit": "µM"},
      {"measurement": "Ki", "setting": "human MC4 receptor; Assay (V) MC4 [Ki] (nM)", "result": 7.55, "unit": "nM"},
      {"measurement": "Ki", "setting": "MC1 receptor", "result": "> 10000", "unit": "nM"}
    ]},
    {"smiles": "CCCC[C@H](NC(=O)[C@H](CCCCN(CC(=O)O)CC(=O)O)NC(=O)CCNC(=O)[C@H](Cc1c[nH]cn1)NC(=O)[C@H](CCC(N)=O)NC(=O)[C@H](CO)NC(=O)[C@H](CO)NC(=O)[C@H](CCC(N)=O)NC(=O)[C@@H](CO)NC(=O)CNC(=O)COCCOCCNC(=O)COCCOCCNC(=O)CCCCCCCCCCCCCCCc1nnn[nH]1)C(=O)N[C@H]1CCC(=O)NCCCC[C@@H](C(N)=O)NC(=O)[C@H](Cc2c[nH]c3ccccc23)NC(=O)[C@H](CCCNC(=N)N)NC(=O)[C@@H](Cc2ccccc2)NC(=O)[C@@H]2C[C@@H](O)CN2C1=O", "note": "[Example 20, (2-{2-[2-(2-{2-[16-(Tetrazol-5-yl)hexadecanoylamino]ethoxy}ethoxy)acetylamino]ethoxy}ethoxy)acetyl-Gly-D-Ser-Gln-Ser-Ser-Gln-His-β-Ala-Lys(biscarboxymethyl)-Nle-c[Glu-Hyp-D-Phe-Arg-Trp-Lys]-NH2] ({Palmitoyl(16-(5-tetrazolyl))-AEEA-AEEA}-G[dS]QSSQH[βAla][Lys(CH2CO2H)2][Nle]E[Hyp][dF]RWK-NH2; lactam 11-16)", "values": [
      {"measurement": "Food consumption (% of vehicle) 24 h", "setting": "ad libitum fed rat model; 1 mg/kg", "result": "61 % of vehicle"},
      {"measurement": "Food consumption (% of vehicle) 48 h", "setting": "ad libitum fed rat model; 1 mg/kg", "result": "72 % of vehicle"},
      {"measurement": "solubility at 3 days", "setting": "[1]; pH 2.94, pH 2.94", "result": 499, "unit": "µM"},
      {"measurement": "solubility at 3 days", "setting": "[1]; pH 4.37, pH 4.37", "result": 512, "unit": "µM"},
      {"measurement": "solubility at 3 days", "setting": "[1]; pH 4.97, pH 4.97", "result": 406, "unit": "µM"},
      {"measurement": "solubility at 3 days", "setting": "[1]; pH 5.4, pH 5.40", "result": 67, "unit": "µM"},
      {"measurement": "solubility at 3 days", "setting": "[1]; pH 5.51, pH 5.51", "result": 56, "unit": "µM"},
      {"measurement": "solubility at 3 days", "setting": "[1]; pH 6.23, pH 6.23", "result": 53, "unit": "µM"},
      {"measurement": "solubility at 3 days", "setting": "[1]; pH 6.91, pH 6.91", "result": 223, "unit": "µM"},
      {"measurement": "solubility at 3 days", "setting": "[1]; pH 6.99", "result": 345, "unit": "µM"},
      {"measurement": "solubility at 3 days", "setting": "[1]; pH 7.23, pH 7.23", "result": 473, "unit": "µM"},
      {"measurement": "solubility at 3 days", "setting": "[1]; pH 7.55, pH 7.55", "result": 452, "unit": "µM"},
      {"measurement": "Ki", "setting": "human MC4 receptor; Assay (V) MC4 [Ki] (nM)", "result": 4.55, "unit": "nM"},
      {"measurement": "Ki", "setting": "MC1 receptor", "result": "> 10000", "unit": "nM"}
    ]}
  ]
}
